# Reference: patent US7396837B2, “Antitumoral analogs of lamellarins” (Pharma Mar, S.A.U., priority 2002, dated 2008)
# Where two headings read alike, the source gives them in different places.
# How the values were obtained:
# Format in all cases: cell-based
# HT-29 = assay: SRB colorimetric cell growth inhibition assay, HT-29; settings: Homo sapiens, HT-29, HT-29; for GI50: GI=growth inhibition, read-out: GI50 HT-29; for CC50: read-out: LC50 HT-29; for IC (TGI): read-out: TGI HT-29
# Summary of the method: (§1)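 Cells are kept under uninterrupted exposure to compound. Staining with sulforhodamine B then measures cell growth and viability. Triplicate data give mean ± SD, from which growth inhibition, total growth inhibition and lethal concentration values follow.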
# LoVo-Dox = assay: SRB colorimetric cell growth inhibition assay, LoVo-Dox (MDR); settings: Homo sapiens, LOVO-DOX; for GI50: GI=growth inhibition, read-out: GI50 LOVO-DOX; for CC50: read-out: LC50 LOVO-DOX; for IC (TGI): read-out: TGI LOVO-DOX
# Summary of the method: as §1
# DU-145 = assay: SRB colorimetric cell growth inhibition assay, DU-145; settings: Homo sapiens, DU-145, DU-145; for GI50: GI=growth inhibition, read-out: GI50 DU-145; for CC50: LC=cell killing (cytotoxic effect), read-out: LC50 DU-145; for IC (TGI): TGI=total growth inhibition (cytostatic effect), read-out: TGI DU-145
# Summary of the method: as §1
# A-549 = assay: SRB colorimetric cell growth inhibition assay, A-549; settings: Homo sapiens, A549, A-549; for GI50: GI=growth inhibition, read-out: GI50 A-549; for CC50: read-out: LC50 A-549; for IC (TGI): read-out: TGI A-549
# Summary of the method: as §1
# IGROV-ET = assay: SRB colorimetric cell growth inhibition assay, IGROV-ET (ET-743 resistant); settings: Homo sapiens, IGROV-ET; for GI50: GI=growth inhibition, read-out: GI50 IGROV-ET; for CC50: LC=cell killing (cytotoxic effect), read-out: LC50 IGROV-ET; for IC (TGI): TGI=total growth inhibition (cytostatic effect), read-out: TGI IGROV-ET
# Summary of the method: as §1
# PANC-1 = assay: SRB colorimetric cell growth inhibition assay, PANC-1; settings: Homo sapiens, PANC-1, PANC-1; for GI50: GI=growth inhibition, read-out: GI50 PANC-1; for CC50: read-out: LC50 PANC-1; for IC (TGI): read-out: TGI PANC-1
# Summary of the method: as §1
# [1] = SRB colorimetric cell growth inhibition assay, H-MEC-1; settings: human, H-MEC-1 cells, H-MEC-1; LC=cell killing (cytotoxic effect); read-out: LC50 H-MEC-1
# Summary of the method: (§2)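 SRB colorimetric readout of cell growth/viability in 96-well format. Means ± SD from triplicate wells; GI (growth inhibition), TGI (total growth inhibition, cytostatic) and LC (cell killing, cytotoxic) parameters derived.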
# H-MEC-1 = assay: as above; settings: Homo sapiens, HMEC-1, H-MEC-1; for GI50: GI=growth inhibition; for IC (TGI): TGI=total growth inhibition (cytostatic effect), read-out: TGI H-MEC-1
# Summary of the method: as §2
# IGROV = assay: SRB colorimetric cell growth inhibition assay, IGROV; settings: Homo sapiens, IGROV; for GI50: GI=growth inhibition, read-out: GI50 IGROV; for CC50: LC=cell killing (cytotoxic effect), read-out: LC50 IGROV; for IC (TGI): TGI=total growth inhibition (cytostatic effect), read-out: TGI IGROV
# Summary of the method: as §1
# SK-MEL-28 = assay: SRB colorimetric cell growth inhibition assay, SK-MEL-28; settings: Homo sapiens, SK-MEL-28, MEL-28; for GI50: GI=growth inhibition, read-out: GI50 MEL-28; for CC50: LC=cell killing (cytotoxic effect), read-out: LC50 MEL-28; for IC (TGI): TGI=total growth inhibition (cytostatic effect), read-out: TGI MEL-28
# Summary of the method: as §1
# LoVo = assay: SRB colorimetric cell growth inhibition assay, LoVo; settings: Homo sapiens, LoVo; for GI50: GI=growth inhibition, read-out: GI50 LOVO; for CC50: read-out: LC50 LOVO; for IC (TGI): read-out: TGI LOVO
# Summary of the method: as §1
# K-562 = assay: SRB colorimetric cell growth inhibition assay, K-562; settings: Homo sapiens, K562, K-562; for GI50: GI=growth inhibition, read-out: GI50 K-562; for CC50: read-out: LC50 K-562; for IC (TGI): read-out: TGI K-562
# Summary of the method: as §1
# LNCaP = assay: SRB colorimetric cell growth inhibition assay, LNCaP; settings: Homo sapiens, LNCaP, LN-caP; for GI50: GI=growth inhibition, read-out: GI50 LN-caP; for CC50: LC=cell killing (cytotoxic effect), read-out: LC50 LN-caP; for IC (TGI): TGI=total growth inhibition (cytostatic effect), read-out: TGI LN-caP
# Summary of the method: as §1
# SKOV-3 = assay: SRB colorimetric cell growth inhibition assay, SKOV-3; settings: Homo sapiens; for GI50: SK-OV-3, SKOV-3, GI=growth inhibition, read-out: GI50 SKOV-3; for CC50 / IC (TGI): SK-OV-3, SKOV-3; for CC50: LC=cell killing (cytotoxic effect), read-out: LC50 SKOV-3; for IC (TGI): TGI=total growth inhibition (cytostatic effect), read-out: TGI SKOV-3
# Summary of the method: as §2
# SK-BR-3 = assay: SRB colorimetric cell growth inhibition assay, SK-BR-3; settings: Homo sapiens, SK-BR-3, SK-BR-3; for GI50: GI=growth inhibition, read-out: GI50 SK-BR-3; for CC50: LC=cell killing (cytotoxic effect), read-out: LC50 SK-BR-3; for IC (TGI): TGI=total growth inhibition (cytostatic effect), read-out: TGI SK-BR-3
# Summary of the method: as §1
# [2] = LC=cell killing (cytotoxic effect)
# [3] = TGI=total growth inhibition (cytostatic effect)
# [4] = cell killing (cytotoxic effect)
# [5] = total growth inhibition (cytostatic effect)
structure (smiles),measurement,setting,value
COc1cc2ccn3c(c(-c4ccc(OC(=O)[C@H](C)NC(=O)OC(C)(C)C)c(OC)c4)c4c5cc(OC)c(OC(=O)[C@H](C)NC(=O)OC(C)(C)C)cc5oc(=O)c43)c2cc1OC [Compound 77],GI50,HT-29,11.7 µM
same,CC50,HT-29; [2],11.7 µM
same,IC (TGI),HT-29; [3],11.7 µM
same,GI50,LoVo-Dox,10.2 µM
same,CC50,LoVo-Dox; [2],11.7 µM
same,IC (TGI),LoVo-Dox; [3],11.7 µM
same,GI50,DU-145,0.8 µM
same,CC50,DU-145,11.7 µM
same,IC (TGI),DU-145,3.96 µM
same,GI50,A-549,6.69 µM
same,CC50,A-549; [2],11.7 µM
same,IC (TGI),A-549; [3],11.7 µM
same,GI50,IGROV-ET,0.258 µM
same,CC50,IGROV-ET,11.7 µM
same,IC (TGI),IGROV-ET,1.17 µM
same,GI50,PANC-1,4.46 µM
same,CC50,PANC-1; [2],11.7 µM
same,IC (TGI),PANC-1; [3],11.7 µM
same,CC50,[1],11.7 µM
same,GI50,H-MEC-1,2.71 µM
same,IC (TGI),H-MEC-1,11.7 µM
same,GI50,IGROV,5.92 µM
same,CC50,IGROV,11.7 µM
same,IC (TGI),IGROV,8.84 µM
same,GI50,SK-MEL-28,3.29 µM
same,CC50,SK-MEL-28,11.7 µM
same,IC (TGI),SK-MEL-28,10.1 µM
same,GI50,LoVo,11.7 µM
same,CC50,LoVo; [2],11.7 µM
same,IC (TGI),LoVo; [3],11.7 µM
same,GI50,K-562,2.13 µM
same,CC50,K-562; [2],11.7 µM
same,IC (TGI),K-562; [3],6.15 µM
same,GI50,LNCaP,7.51 µM
same,CC50,LNCaP,11.7 µM
same,IC (TGI),LNCaP,11.7 µM
same,GI50,SKOV-3,7.52 µM
same,CC50,SKOV-3,11.7 µM
same,IC (TGI),SKOV-3,11.7 µM
same,GI50,SK-BR-3,3.53 µM
same,CC50,SK-BR-3,11.7 µM
same,IC (TGI),SK-BR-3,11.7 µM
COc1cc(-c2c3n(c4c(=O)oc5cc(OC(=O)[C@@H]6CCCN6)c(OC)cc5c24)CCc2c-3cc(OC)c(OC)c2OC(=O)[C@@H]2CCCN2)ccc1OC(=O)[C@@H]1CCCN1 [Compound 118],GI50,HT-29,1.92 µM
same,CC50,HT-29; [4],6.59 µM
same,IC (TGI),HT-29; [5],3.56 µM
same,GI50,LoVo-Dox,0.45 µM
same,CC50,LoVo-Dox; [4],3.86 µM
same,IC (TGI),LoVo-Dox; [5],1.3 µM
same,GI50,DU-145,1.6 µM
same,CC50,DU-145,5.64 µM
same,IC (TGI),DU-145,3 µM
same,GI50,A-549,1.8 µM
same,CC50,A-549; [4],6.99 µM
same,IC (TGI),A-549; [5],3.55 µM
same,GI50,IGROV-ET,0.876 µM
same,CC50,IGROV-ET,6.17 µM
same,IC (TGI),IGROV-ET,2.33 µM
same,GI50,PANC-1,1.08 µM
same,CC50,PANC-1; [4],5.35 µM
same,IC (TGI),PANC-1; [5],2.4 µM
same,CC50,[1],6.45 µM
same,GI50,H-MEC-1,1.45 µM
same,IC (TGI),H-MEC-1,3.06 µM
same,GI50,IGROV,0.97 µM
same,CC50,IGROV,5.47 µM
same,IC (TGI),IGROV,2.3 µM
same,GI50,SK-MEL-28,1.65 µM
same,CC50,SK-MEL-28,5.49 µM
same,IC (TGI),SK-MEL-28,3 µM
same,GI50,LoVo,1.35 µM
same,CC50,LoVo; [4],5.43 µM
same,IC (TGI),LoVo; [5],2.7 µM
same,GI50,K-562,1.17 µM
same,CC50,K-562; [4],6.57 µM
same,IC (TGI),K-562; [5],2.77 µM
same,GI50,LNCaP,0.987 µM
same,CC50,LNCaP,4.76 µM
same,IC (TGI),LNCaP,2.16 µM
same,GI50,SKOV-3,2.02 µM
same,CC50,SKOV-3,8.22 µM
same,IC (TGI),SKOV-3,4.08 µM
same,GI50,SK-BR-3,0.639 µM
same,CC50,SK-BR-3,6.25 µM
same,IC (TGI),SK-BR-3,2.04 µM
